Measured values taken from US12138236B2, “Compositions comprising N-Acetyl Methyl GABA and related methods” (MBI Distributing, priority 2020, dated 2024).
Values joined by “and” are separate entries in the source; they are usually repeats but may differ in a detail not shown here. Equal values may be shown once.

Columns and labels:
[1] = Daytime study of N-Acetyl Methyl GABA composition without melatonin, 19 subjects (Example 6); format: in vivo, human; conditions: one value per patient (1-19), over baseline, 2 teaspoons (8 g) orally once daily, 14 days
Description: The Purpose of this study was to quantify the effectiveness of N-Acetyl Methyl GABA on FAM MS (Fatigue, Anxiety, Mood, Mind, Stress) and related symptoms and qualities. (Mind refers to mental clarity, memory and focus).
Due to the above-described effects of N-Acetyl Methyl GABA on sleep and relaxation, a sleep quality section was added to see how a “daytime” version of N-Acetyl Methyl GABA (administered without melatonin) assisted with sleep quality for daytime patients. This was also beneficial for patients that prefer not to take melatonin.
Study participants: 19 subjects
7 day pre-study symptomology (no N-Acetyl Methyl GABA taken) to record a baseline of patient symptoms.
14 day study symptomology (taking N-Acetyl Methyl GABA) to record patient symptoms.
Preferred subject would have minimum two of the following symptoms prior to study: FAMMS (Fatigue, Anxiety, Mood, Mind, Stress) (Mind defines mental clarity, memory and focus issues), sleep imbalance, insomnia, daytime energy issues.
Subjects were asked to not use any additional mind/body stress relief or natural supplements other than the N-Acetyl Methyl GABA composition (“GabaSorb® Daytime”) during the 14 day study.
Subjects were asked to take 2 teaspoons of the liquid N-Acetyl Methyl GABA composition (Gabasorb Daytime) daily in the morning or early afternoon if they suffered from two or more symptoms listed in the protocol.
The N-Acetyl Methyl GABA composition described in Table 11 was taken orally by each patient once daily.
Subjects were administered 2 teaspoons (8 g) of the liquid N-Acetyl Methyl GABA composition described above.
Ratings were made each day during the study period (7 days pre-administration, 14-days during N-Acetyl Methyl GABA administration), based on a scale of 1 to 5. Improvements are shown by increased ratings over baseline in qualities such as Stress, Anxiety, Mental Clarity and Memory, Mood, Daytime Energy, and Sleep Quality for each patient in Table 12. Patient gender and age for Table 12 are as follows: Patient 1 (P1)[…], P2[…], P3[…]; P4[…], P5[…], P6[…], P7[…], P8[…], P9[…], P10[…], P11[…], P12[…], P13[…], P14:M/22, P15:F/23, P16:M/50, P17:M/19, P18:F/44, P19:F27.

[2] = Single human subject's report on overnight sleep after self-administering N-Acetyl Methyl GABA (Example 2); format: in vivo; set-up: key to Sleep Quality / Restfulness/Wakefulness / Mental Clarity/Memory / Mood / Anti-inflammatory Action (decrease in pain): 1: Very Poor; 2: Poor; 3: Fair; 4: Good; 5: Excellent
Description: Table 2 reports a human subject's sleep quality, restfulness/wakefulness, mental clarity/memory, mood, and inflammation and pain reduction after 18 overnight sleep periods over the span of 15 weeks (October-January, as shown in Table 2), with 15 of the 18 nights occurring before the first administration of N-Acetyl Methyl GABA to the subject. Table 3 reports the subject's sleep quality and other parameters after self-administering 300 mg of N-Acetyl Methyl GABA before an overnight sleep period, 40 times over the span of 9 weeks (November-January, as shown in Table 3). Data in Tables 2 and 3 are based on a rating of sleep quality and other parameters from 1 to 5, where 1 is Very Poor, 2 is Poor, 3 is Fair, 4 is Good, and 5 is Excellent. Each morning after waking, the subject reported on the sleep quality, restfulness/wakefulness, mental clarity/memory, mood, and inflammation and pain reduction they felt, and/or with regard to sleep quality, used information from a “Sleep Cycle” app on a cell phone (Sleep Cycle, www.sleepcycle.com, Gothenburg, Sweden).
For 14 of the days reported in Table 2, before the first administration of N-Acetyl Methyl GABA, data is from a sleep app on a cell phone device. Other data in Table 2 is from the subject's experience as reported for a given sleep period. The data before first administration of N-Acetyl Methyl GABA provides a baseline of sleep patterns for the subject with no sleep aid. The average sleep quality in the subject before a first administration of N-Acetyl Methyl GABA was 73.8%. The average percentage of sleep quality improved after administration of N-Acetyl Methyl GABA according to this invention, with average sleep quality at 80.4%.

[3] = Administration of N-Acetyl Methyl GABA to other human subjects, subject reports; format: in vivo
Description: Subjects report more natural sleep without the morning grogginess associated with many sleep aids. Subjects report they slept all night long without waking. […] Subjects report the mind is clear and the attitude is positive after N-Acetyl Methyl GABA was administered prior to an overnight sleep period. Without being bound by theory, this may be due to anxiolytic effects of N-Acetyl Methyl GABA.

[4] = average of 40 nights, scale 1 to 5, without: 2.2
[5] = daily rating 1 to 5 after overnight sleep, 300 mg before sleep, one subject
[6] = sum of 40 daily ratings, 300 mg

Compound: COC(=O)CCCNC(C)=O [N-Acetyl Methyl GABA]
- Anxiety Reduced (%) [1]: 35% and 32% and 22% and 40% (2×) and 46% and 107% and 71% (2×) and 126% and 57% and 56% (2×) and 63% (3×) and 52% and 95% and 89%
- Daytime Energy Improved (%) [1]: 40% and 32% and 88% (2×) and 29% and 57% and 74% and 36% and 42% and 23% and 17% and 22% (2×) and 43% and 20% and 11% and 0% and 33% (2×)
- Mental Clarity/Memory Improved (%) [1]: 57% and 55% and 72% and 43% and 100% and 82% and 52% and 56% and 131% and 70% and 59% and 23% and 25% and 33% (2×) and 71% and 16% and 30% and 40%
- Mood Improved (%) [1]: 20% and 94% and 39% and 68% and 100% (4×) and 120% and 152% and 88% and 129% and 107% and 85% and 65% and 60% and 69% (2×) and 112%
- Sleep Quality Improved (%) [1]: 78% (2×) and 95% and 118% and 150% and 233% and 62% (2×) and 77% and 93% and 57% and 81% and 52% (3×) and 75% and 87% and 79% and 56%
- Stress Reduced (%) [1]: 48% and 45% and 36% (2×) and 33% and 72% and 17% and 25% and 40% (3×) and 78% and 69% and 27% and 56% and 85% and 41% and 52% and 55%
- side effects reported by the subject ([2]; 300 mg before overnight sleep, 40 times over 9 weeks): No side effects
- Inflammation/pain improved, percent of average score without ([2]; 2.1/1.7*100%): about 125%
- Mental clarity/memory improved, percent of average score without ([2]; 2.2/2.2*100%): 100%
- Mood improved, percent of average score without ([2]; 2.5/1.9*100%): about 132%
- Sleep quality improved, percent of average score without ([2]; 2.5/2.2*100%): approximately 115%
- Restfulness/wakefulness improved, percent of average score without ([2]; 2.6/2*100%): 130%
- average sleep quality (percentage) ([2]; after administration, before first administration 73.8%, sleep app on cell phone): 80.4%
- morning or mid-afternoon anxiety, subject report ([2]; after waking from the sleep periods): no longer feeling morning or mid-afternoon anxiety
- Anti-inflammatory Action (decrease in pain), average score with N-Acetyl Methyl GABA ([2]; average of 40 nights, scale 1 to 5, without: 1.7): 3.8
- Mood, average score with N-Acetyl Methyl GABA ([2]; average of 40 nights, scale 1 to 5, without: 1.9): 4.4
- Restfulness/Wakefulness, average score with N-Acetyl Methyl GABA ([2]; average of 40 nights, scale 1 to 5, without: 2): 4.6
- Mental Clarity/Memory, average score with N-Acetyl Methyl GABA [2, 4]: 4.4
- Sleep Quality, average score with N-Acetyl Methyl GABA [2, 4]: 4.7
- Anti-inflammatory Action (decrease in pain) [2, 5]: 3 and 4 and 2 and 5
- Mental Clarity/Memory [2, 5]: 3 and 4 and 5
- Mood [2, 5]: 3 and 4 and 5
- Restfulness/Wakefulness [2, 5]: 3 and 4 and 5
- Sleep Quality ([2]; daily rating 1 to 5 after overnight sleep, 300 mg self-administered before sleep, one subject): 4 and 5
- Anti-inflammatory Action (decrease in pain), Total Score, 40 days [2, 6]: 153
- Mental Clarity/Memory, Total Score, 40 days [2, 6]: 177
- Mood, Total Score, 40 days [2, 6]: 176
- Restfulness/Wakefulness, Total Score, 40 days [2, 6]: 183
- Sleep Quality, Total Score, 40 days [2, 6]: 190
- sleep quality, subjects' report ([3]; administered prior to a sleep period): improved sleep quality
- tolerability in other human subjects ([3]; human, in vivo): well tolerated
